# Reference: PubChem BioAssay (NCI)
#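 Tested at 5 concentrations; 48 h exposure; 96-well plates; endpoints linearly interpolated, else capped at highest concentration. TGI is the concentration that stops growth completely.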
# What was measured:
# Assay in all cases: inhibition of tumour cell growth, NCI panel, 48 h
# A549 NSCLC = test system: A549 NSCLC
# ACHN renal = test system: ACHN renal
# CAKI-1 renal = test system: CAKI-1 renal
# DLD-1 colon = test system: DLD-1 colon
# DMS 114 small cell lung = test system: DMS 114 small cell lung
# DMS 273 small cell lung = test system: DMS 273 small cell lung
# EKVX NSCLC = test system: EKVX NSCLC
# HCC-2998 colon = test system: HCC-2998 colon
# HOP-18 NSCLC = test system: HOP-18 NSCLC
# HOP-62 NSCLC = test system: HOP-62 NSCLC
# HOP-92 NSCLC = test system: HOP-92 NSCLC
# HT29 colon = test system: HT29 colon
# KM12 colon = test system: KM12 colon
# KM20L2 colon = test system: KM20L2 colon
# LOX IMVI melanoma = test system: LOX IMVI melanoma
# LXFL 529 NSCLC = test system: LXFL 529 NSCLC
# M14 melanoma = test system: M14 melanoma
# M19-MEL melanoma = test system: M19-MEL melanoma
# MALME-3M melanoma = test system: MALME-3M melanoma
# NCI-H226 lung = test system: NCI-H226 lung
# NCI-H23 lung = test system: NCI-H23 lung
# NCI-H460 lung = test system: NCI-H460 lung
# NCI-H522 lung = test system: NCI-H522 lung
# OVCAR-5 ovarian = test system: OVCAR-5 ovarian
# OVCAR-8 ovarian = test system: OVCAR-8 ovarian
# RXF 393 renal = test system: RXF 393 renal
# SF-268 CNS = test system: SF-268 CNS
# SF-295 CNS = test system: SF-295 CNS
# SF-539 CNS = test system: SF-539 CNS
# SK-MEL-2 melanoma = test system: SK-MEL-2 melanoma
# SK-MEL-28 melanoma = test system: SK-MEL-28 melanoma
# SN12C renal = test system: SN12C renal
# SNB-19 CNS = test system: SNB-19 CNS
# SNB-75 CNS = test system: SNB-75 CNS
# SNB-78 CNS = test system: SNB-78 CNS
# SR leukemia = test system: SR leukemia
# SW-620 colon = test system: SW-620 colon
# TK-10 renal = test system: TK-10 renal
# U251 CNS = test system: U251 CNS
# UACC-257 melanoma = test system: UACC-257 melanoma
# UO-31 renal = test system: UO-31 renal
# XF 498 CNS = test system: XF 498 CNS
# 786-0 renal = test system: 786-0 renal
# A498 renal = test system: A498 renal
# CCRF-CEM leukemia = test system: CCRF-CEM leukemia
# COLO 205 colon = test system: COLO 205 colon
# HCT-116 colon = test system: HCT-116 colon
# HCT-15 colon = test system: HCT-15 colon
# HL-60(TB) leukemia = test system: HL-60(TB) leukemia
# IGROV1 ovarian = test system: IGROV1 ovarian
# K-562 leukemia = test system: K-562 leukemia
# MOLT-4 leukemia = test system: MOLT-4 leukemia
# OVCAR-3 ovarian = test system: OVCAR-3 ovarian
# OVCAR-4 ovarian = test system: OVCAR-4 ovarian
# RPMI-8226 leukemia = test system: RPMI-8226 leukemia
# SK-MEL-5 melanoma = test system: SK-MEL-5 melanoma
# SK-OV-3 ovarian = test system: SK-OV-3 ovarian
# UACC-62 melanoma = test system: UACC-62 melanoma
structure (smiles),measurement,setting,value
CCC(C)CN1C(=O)NC(Cc2ccccc2)C1=O (stereo not given),TGI,A549 NSCLC,> 100 µM
same,TGI,ACHN renal,> 100 µM
same,TGI,CAKI-1 renal,> 100 µM
same,TGI,DLD-1 colon,> 100 µM
same,TGI,DMS 114 small cell lung,> 100 µM
same,TGI,DMS 273 small cell lung,> 100 µM
same,TGI,EKVX NSCLC,> 100 µM
same,TGI,HCC-2998 colon,> 100 µM
same,TGI,HOP-18 NSCLC,> 100 µM
same,TGI,HOP-62 NSCLC,> 100 µM
same,TGI,HOP-92 NSCLC,90.8 µM
same,TGI,HT29 colon,> 100 µM
same,TGI,KM12 colon,> 100 µM
same,TGI,KM20L2 colon,> 100 µM
same,TGI,LOX IMVI melanoma,> 100 µM
same,TGI,LXFL 529 NSCLC,> 100 µM
same,TGI,M14 melanoma,> 100 µM
same,TGI,M19-MEL melanoma,> 100 µM
same,TGI,MALME-3M melanoma,> 100 µM
same,TGI,NCI-H226 lung,> 100 µM
same,TGI,NCI-H23 lung,> 100 µM
same,TGI,NCI-H460 lung,> 100 µM
same,TGI,NCI-H522 lung,> 100 µM
same,TGI,OVCAR-5 ovarian,> 100 µM
same,TGI,OVCAR-8 ovarian,> 100 µM
same,TGI,RXF 393 renal,> 100 µM
same,TGI,SF-268 CNS,> 100 µM
same,TGI,SF-295 CNS,> 100 µM
same,TGI,SF-539 CNS,> 100 µM
same,TGI,SK-MEL-2 melanoma,> 100 µM
same,TGI,SK-MEL-28 melanoma,> 100 µM
same,TGI,SN12C renal,> 100 µM
same,TGI,SNB-19 CNS,> 100 µM
same,TGI,SNB-75 CNS,> 100 µM
same,TGI,SNB-78 CNS,> 100 µM
same,TGI,SR leukemia,> 100 µM
same,TGI,SW-620 colon,> 100 µM
same,TGI,TK-10 renal,> 100 µM
same,TGI,U251 CNS,> 100 µM
same,TGI,UACC-257 melanoma,79.5 µM
same,TGI,UO-31 renal,> 100 µM
same,TGI,XF 498 CNS,> 100 µM
Nc1nc(SCCC/C=C/B(O)O)nc2c1ncn2C1OC(COP(=O)(O)O)C(O)C1O (stereo not given),TGI,786-0 renal,> 203 µM
same,TGI,A498 renal,> 203 µM
same,TGI,A549 NSCLC,> 203 µM
same,TGI,ACHN renal,> 203 µM
same,TGI,CAKI-1 renal,> 203 µM
same,TGI,CCRF-CEM leukemia,> 203 µM
same,TGI,COLO 205 colon,> 203 µM
same,TGI,DLD-1 colon,> 203 µM
same,TGI,DMS 114 small cell lung,> 203 µM
same,TGI,DMS 273 small cell lung,> 203 µM
same,TGI,HCT-116 colon,> 203 µM
same,TGI,HCT-15 colon,> 203 µM
same,TGI,HL-60(TB) leukemia,> 203 µM
same,TGI,HOP-18 NSCLC,> 203 µM
same,TGI,HOP-62 NSCLC,> 203 µM
same,TGI,HOP-92 NSCLC,> 203 µM
same,TGI,HT29 colon,> 203 µM
same,TGI,IGROV1 ovarian,> 203 µM
same,TGI,K-562 leukemia,> 203 µM
same,TGI,KM12 colon,> 203 µM
same,TGI,KM20L2 colon,> 203 µM
same,TGI,LOX IMVI melanoma,> 203 µM
same,TGI,M14 melanoma,> 203 µM
same,TGI,M19-MEL melanoma,> 203 µM
same,TGI,MALME-3M melanoma,> 203 µM
same,TGI,MOLT-4 leukemia,> 203 µM
same,TGI,NCI-H226 lung,> 203 µM
same,TGI,NCI-H23 lung,> 203 µM
same,TGI,NCI-H460 lung,> 203 µM
same,TGI,NCI-H522 lung,> 203 µM
same,TGI,OVCAR-3 ovarian,> 203 µM
same,TGI,OVCAR-4 ovarian,> 203 µM
same,TGI,OVCAR-5 ovarian,> 203 µM
same,TGI,OVCAR-8 ovarian,> 203 µM
same,TGI,RPMI-8226 leukemia,> 203 µM
same,TGI,SF-268 CNS,> 203 µM
same,TGI,SF-295 CNS,> 203 µM
same,TGI,SF-539 CNS,> 203 µM
same,TGI,SK-MEL-2 melanoma,> 203 µM
same,TGI,SK-MEL-28 melanoma,> 203 µM
same,TGI,SK-MEL-5 melanoma,> 203 µM
same,TGI,SK-OV-3 ovarian,> 203 µM
same,TGI,SN12C renal,> 203 µM
same,TGI,SNB-19 CNS,> 203 µM
same,TGI,SNB-75 CNS,> 203 µM
same,TGI,SNB-78 CNS,> 203 µM
same,TGI,SR leukemia,> 203 µM
same,TGI,SW-620 colon,> 203 µM
same,TGI,TK-10 renal,> 203 µM
same,TGI,U251 CNS,> 203 µM
same,TGI,UACC-257 melanoma,> 203 µM
same,TGI,UACC-62 melanoma,> 203 µM
same,TGI,UO-31 renal,> 203 µM
same,TGI,XF 498 CNS,> 203 µM
O=C(NC(=S)Nc1ccccc1)c1ccc([N+](=O)[O-])cc1,TGI,786-0 renal,> 100 µM
same,TGI,A549 NSCLC,> 100 µM
same,TGI,ACHN renal,> 100 µM
same,TGI,CAKI-1 renal,> 100 µM
same,TGI,CCRF-CEM leukemia,> 100 µM
same,TGI,COLO 205 colon,> 100 µM
same,TGI,DLD-1 colon,> 100 µM
same,TGI,DMS 114 small cell lung,44.5 µM
same,TGI,DMS 273 small cell lung,> 100 µM
same,TGI,EKVX NSCLC,> 100 µM
same,TGI,HCC-2998 colon,> 100 µM
same,TGI,HCT-116 colon,> 100 µM
same,TGI,HCT-15 colon,> 100 µM
same,TGI,HL-60(TB) leukemia,> 100 µM
same,TGI,HOP-18 NSCLC,> 100 µM
same,TGI,HOP-62 NSCLC,> 100 µM
same,TGI,HOP-92 NSCLC,> 100 µM
same,TGI,HT29 colon,> 100 µM
same,TGI,IGROV1 ovarian,> 100 µM
same,TGI,K-562 leukemia,> 100 µM
same,TGI,KM12 colon,> 100 µM
same,TGI,KM20L2 colon,> 100 µM
same,TGI,LOX IMVI melanoma,> 100 µM
same,TGI,LXFL 529 NSCLC,> 100 µM
same,TGI,M14 melanoma,> 100 µM
same,TGI,M19-MEL melanoma,> 100 µM
same,TGI,MALME-3M melanoma,> 100 µM
same,TGI,MOLT-4 leukemia,> 100 µM
same,TGI,NCI-H23 lung,> 100 µM
same,TGI,NCI-H460 lung,> 100 µM
same,TGI,NCI-H522 lung,86.6 µM
same,TGI,OVCAR-3 ovarian,> 100 µM
same,TGI,OVCAR-4 ovarian,> 100 µM
same,TGI,OVCAR-8 ovarian,> 100 µM
same,TGI,RPMI-8226 leukemia,> 100 µM
same,TGI,SF-268 CNS,> 100 µM
same,TGI,SF-295 CNS,> 100 µM
same,TGI,SK-MEL-28 melanoma,> 100 µM
same,TGI,SK-MEL-5 melanoma,> 100 µM
same,TGI,SK-OV-3 ovarian,> 100 µM
same,TGI,SN12C renal,> 100 µM
same,TGI,SNB-75 CNS,> 100 µM
same,TGI,SNB-78 CNS,> 100 µM
same,TGI,SW-620 colon,> 100 µM
same,TGI,TK-10 renal,> 100 µM
same,TGI,UACC-257 melanoma,> 100 µM
same,TGI,UACC-62 melanoma,> 100 µM
same,TGI,UO-31 renal,> 100 µM
same,TGI,XF 498 CNS,> 100 µM
